Data published in PubChem BioAssay AID248 (DTP/NCI, 2004).
Values joined by “and” are separate entries in the source; they are usually repeats but may differ in a detail not shown here. Identical values can stand only once. Inconclusive results and toxic doses are left out. No stated cut-off is given here; in the data, active means T/C of 150% or more; inactive means T/C below 125%.

Test system: L1210 leukemia ip in BDF1 mice, survival T/C
Experiment: NCI In Vivo Anticancer Drug Screen. Data for tumor model L1210 Leukemia (intraperitoneal) in B6D2F1 (BDF1) mice
Details: endpoint: mean survival time, higher = longer survival
How it was run: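 Value reflects the ratio of survival in compound-treated mice to survival in vehicle-treated controls, with both groups carrying the same transplanted tumor.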

[1] = dose: 100.0 mg/kg/injection, schedule: Q04DX003 (ip), vehicle: saline with Tween-80
[2] = dose: 200.0 mg/kg/injection, schedule: Q04DX003 (ip), vehicle: saline with Tween-80
[3] = dose: 100.0 mg/kg/injection, schedule: Q04DX002 (ip), vehicle: Klucel (hydroxypropylcellulose) (HPC)
[4] = dose: 200.0 mg/kg/injection, schedule: Q04DX002 (ip), vehicle: Klucel (hydroxypropylcellulose) (HPC)
[5] = dose: 400.0 mg/kg/injection, schedule: Q04DX002 (ip), vehicle: Klucel (hydroxypropylcellulose) (HPC)
[6] = dose: 100.0 mg/kg/injection, schedule: Q01DX001 (ip), vehicle: carboxymethylcellulose (CMC)
[7] = dose: 200.0 mg/kg/injection, schedule: Q01DX001 (ip), vehicle: carboxymethylcellulose (CMC)

Measured: T/C

CCCCCCCCCCCCC/C=C/CC(CC(=O)O)C(=O)Nc1ccc(-n2c(=O)cc(C)n2C)cc1 (stereo not given)
inactive: [1] 92 % of control | [2] 94 % of control | dose: 400.0 mg/kg/injection, schedule: Q04DX003 (ip), vehicle: saline with Tween-80 92 % of control

COc1cc2cc[n+]3c(C)c4cc5c(cc4cc3c2cc1OC)OCO5 (tested in a mixture with another compound)
inactive: dose: 2.5 mg/kg/injection, schedule: Q01DX009 (ip), vehicle: saline 109 % of control | dose: 5.0 mg/kg/injection, schedule: Q01DX009 (ip), vehicle: saline 103 % of control | dose: 50.0 mg/kg/injection, schedule: Q01DX009 (ip), vehicle: saline 97 % of control

Cc1c(NC(=O)OCc2ccccc2)no[n+]1[O-]
inactive: dose: 100.0 mg/kg/injection, schedule: Q04DX002 (ip), vehicle: saline 102 % of control | dose: 200.0 mg/kg/injection, schedule: Q04DX002 (ip), vehicle: saline 98 % of control | dose: 400.0 mg/kg/injection, schedule: Q04DX002 (ip), vehicle: saline 98 % of control

O=C(O)c1cc(=O)n2c3c(cccc13)CCC2
inactive: dose: 50.0 mg/kg/injection, schedule: Q04DX003 (ip), vehicle: saline with Tween-80 101 % of control | [1] 104 % of control | [2] 90 % of control

CCCCCC(=O)NNc1ccccc1
inactive: dose: 50.0 mg/kg/injection, schedule: Q04DX002 (ip), vehicle: Klucel (hydroxypropylcellulose) (HPC) 104 % of control | [3] 104 % of control | [4] 111 % of control | [5] 104 % of control

N#Cc1c2ccccc2nc2ccccc12
inactive: dose: 50.0 mg/kg/injection, schedule: Q01DX001 (ip), vehicle: carboxymethylcellulose (CMC) 90 % of control | [6] 92 % of control | [7] 90 % of control | dose: 400.0 mg/kg/injection, schedule: Q01DX001 (ip), vehicle: carboxymethylcellulose (CMC) 90 % of control

CC(=O)Nc1ccc(C(=O)O)cc1[N+](=O)[O-]
inactive: [6] 99 % of control | dose: 100.0 mg/kg/injection, schedule: Q01DX009 (ip), vehicle: carboxymethylcellulose (CMC) 95 % of control and 105 % of control | [3] 95 % of control | dose: 100.0 mg/kg/injection, schedule: Q04DX002 (ip), vehicle: carboxymethylcellulose (CMC) 106 % of control and 90 % of control | dose: 100.0 mg/kg/injection, schedule: Q04DX003 (ip), vehicle: carboxymethylcellulose (CMC) 97 % of control | [7] 97 % of control | dose: 200.0 mg/kg/injection, schedule: Q01DX009 (ip), vehicle: carboxymethylcellulose (CMC) 98 % of control and 107 % of control | [4] 98 % of control | dose: 200.0 mg/kg/injection, schedule: Q04DX002 (ip), vehicle: carboxymethylcellulose (CMC) 93 % of control and 101 % of control | dose: 200.0 mg/kg/injection, schedule: Q04DX003 (ip), vehicle: carboxymethylcellulose (CMC) 105 % of control | dose: 400.0 mg/kg/injection, schedule: Q01DX009 (ip), vehicle: carboxymethylcellulose (CMC) 93 % of control and 91 % of control | [5] 98 % of control | dose: 400.0 mg/kg/injection, schedule: Q04DX002 (ip), vehicle: carboxymethylcellulose (CMC) 93 % of control and 90 % of control | dose: 400.0 mg/kg/injection, schedule: Q04DX003 (ip), vehicle: carboxymethylcellulose (CMC) 91 % of control

CSc1ncnc2c1ncn2C1OC(CO)C(O)OC1O (stereo not given)
inactive: dose: 15.0 mg/kg/injection, schedule: Q01DX009 (ip), vehicle: saline 117 % of control | dose: 25.0 mg/kg/injection, schedule: Q01DX009 (ip), vehicle: saline 111 % of control | dose: 25.0 mg/kg/injection, schedule: Q04DX003 (ip), vehicle: Klucel (hydroxypropylcellulose) (HPC) 104 % of control | dose: 45.0 mg/kg/injection, schedule: Q01DX001 (ip), vehicle: saline 106 % of control | dose: 45.0 mg/kg/injection, schedule: Q01DX009 (ip), vehicle: saline 119 % of control | dose: 50.0 mg/kg/injection, schedule: Q04DX003 (ip), vehicle: Klucel (hydroxypropylcellulose) (HPC) 109 % of control | dose: 67.0 mg/kg/injection, schedule: Q01DX001 (ip), vehicle: saline 118 % of control | dose: 70.0 mg/kg/injection, schedule: Q01DX009 (ip), vehicle: saline 119 % of control | dose: 75.0 mg/kg/injection, schedule: Q01DX009 (ip), vehicle: saline 116 % of control | dose: 100.0 mg/kg/injection, schedule: Q04DX003 (ip), vehicle: Klucel (hydroxypropylcellulose) (HPC) 110 % of control | dose: 200.0 mg/kg/injection, schedule: Q01DX001 (ip), vehicle: saline 112 % of control
